Source: patent publication EP4725954A1, “MODIFIED PEPTIDES SUCH AS POLYPEPTIDES LA-19 AND TM-19 HAVING ANTI-AGING AND REPAIRING EFFECTS AND USE THEREOF” (Anhui Dexin Huahai Biological Technology Co. Ltd., priority 2023, dated 2025)
Read-outs that look alike come from different tables or passages of the source. Where no end group is shown, it is not given here.

What was measured:
[1] = system: IL-6; experiment: Anti-inflammatory activity test on keratinocytes: IL-6 ELISA; type: cell-based, Human; settings: 10 µM; UVB 30 mJ/cm^2, HaCaT supernatant; blank 10.619, model 18.622; Mean ± SEM
Protocol: (§1) Interleukin-6 ELISA assay kit (Shanghai Beyotime Biotechnology Co., Ltd.); tumor necrosis factor α ELISA assay kit (Shanghai Beyotime Biotechnology Co., Ltd.); 6-well plate (Wuxi NEST Biotechnology Co., Ltd.); and palmitoyl tetrapeptide-7 (Shenzhen Jianyuan Pharmaceutical Technology Co., Ltd.). Other experimental materials and instruments are the same as those in Examples 1, 2, and 3.
(§2) The cells were counted and calculated. […] After 24 hours of incubation, cell UV modeling was performed. The UVB lamp tube was turned on, and the radiation intensity was measured with a UV irradiance meter. When the radiation intensity reached 500 µW/cm^2, the uncovered 6-well plate was placed and irradiated for 1 minute such that the radiation dose was up to 30 mJ/cm^2. At the end of the radiation, the 6-well plate was covered and placed into the cell incubator.

[2] = system: TNF-α; experiment: Anti-inflammatory activity test on keratinocytes: TNF-α ELISA; type: cell-based, Human; settings: 10 µM; UVB 30 mJ/cm^2, HaCaT supernatant; blank 2.890, model 10.812; Mean ± SEM
Protocol: as §1, §2

[3] = system: Human keratinocytes (HaCaT cells)
Protocol: (§3) Human keratinocytes (HaCaT cells, Nanjing Saihongrui Biotechnology Co., Ltd.).
(§4) Cell culture conditions: constant temperature and humidity incubator (37°C, 95% air, 5% carbon dioxide), 90% dulbecco's modified eagle medium (DMEM) high-glucose medium + 10% fetal bovine serum (Nanjing BioChannel Biotechnology Co., Ltd).
(§5) A cell culture flask was taken out from the cell incubator, observed under a microscope, and the cells were in the logarithmic growth phase. In a clean bench, the medium was discarded, the cells were rinsed with 2 mL of phosphate buffer saline (PBS) and discarded; after repeating the above process once, 2 mL of 0.25% trypsin was added for digestion. The digestion was terminated by adding a corresponding volume of serum-containing medium, and the cells were transferred to a 15 mL conical centrifuge tube and centrifuged at 1000 rpm for 5 minutes. The serum-containing medium was resuspended in a resuspension volume of 2 mL. The cells were counted and calculated. The cells were then diluted, and plated; then the diluted cell suspension was taken, then the 96-well plate was paved with 10^4 cells/well, and the edge wells were filled with PBS. The well plate was taken out from the cell incubator, the medium was discarded, the well-plate of the administration group was added with the corresponding drugs and placed into the cell incubator for incubation for 48 hours. On the day of detection, the 96-well plate was taken out from the cell incubator, and added with 10 µL of a CCK-8 reagent per well in the clean bench, and then quickly placed into the cell incubator for 60 minutes, and the absorbance was measured with a microplate reader and the absorbance was measured at OD 450 nm. The average reading of the blank group was taken, and the numerical value of each group was divided by the average value to obtain the change in cell viability. Results are expressed as Mean ± SEM, compared with the blank group, *P<0.05 denotes a significant difference, **P<0.01, ***P<0.001, and ****P<0.0001 denote very significant differences.

[4] = system: Human keratinocytes (HaCaT cells); experiment: Cytotoxicity test of the polypeptides on keratinocytes (CCK-8); settings: in words; for effect on cell growth: compared to the blank group
Protocol: as §3, §4, §5

| Substance | effect on cell growth [4] | further results |
| --- | --- | --- |
| palmitoyl tetrapeptide-7 |  | IL-6 activity (pg/mgprot) [1]: 13.901±1.356 pg/mgprot; TNF-α activity (pg/mgprot) [2]: 6.832±2.461 pg/mgprot |
| LQSSLRALRQM [P5] |  | effect on cell growth [3]: do not significantly inhibit cell growth |
| TKAAAGGGLQTSLRALRQI [P10] | do not significantly inhibit cell growth |  |
| Ac-LQTSLRALRQIGGGTKAAA [P9] | do not significantly inhibit cell growth |  |
| Ac-LQSSLRALRQMGGGTKAAA [P6] | do not significantly inhibit cell growth |  |
| LQSSLRALRQMGGGTKAAA [LA-19] | do not significantly inhibit cell growth | toxicity to keratinocytes [4]: no obvious toxicity to keratinocytes |
| LQSSLRALRQMGGG [P3] | do not significantly inhibit cell growth |  |
| LQSSLRALRQMGGGTKAAA-NH2 [P7] | do not significantly inhibit cell growth |  |
| LQTSLRALRQIGGGTKAAA [P8] | do not significantly inhibit cell growth |  |
| TKAAAGGGLQSSLRALRQM [TM-19] | slightly inhibit cell growth at low concentrations but promote cell proliferation at high concentrations |  |
| TKAAA [Acein, reference compound] | do not significantly inhibit cell growth |  |
| GGGLQSSLRALRQM [P4] | do not significantly inhibit cell growth |  |
